≈ marks a conversion by molar mass, not a printed value.
Tests used:
HepG2 (Hepatocellular) = assay: Antiproliferative activity, sulphorhodamine B (SRB) assay, HepG2; type: cell-based; conditions: Homo sapiens, HepG2, cytotoxicity, HepG2 liver cancer cells, mean of three independent experiments
Procedure: (§1) The cytotoxicity of the new isolated compounds was evaluated against MCF-7 (breast cells), HepG2 (Hepatocellular) and HCT-116 (colorectal cells) human cancer cells using sulphorhodamine B assay (SRB). This assay was performed as previously published.
(§2) The antiproliferative activity of the target compounds was assessed on three cancer lines, MCF-7, HepG2 and HCT-116 cells using sulforhodamine assay. […].

MCF-7 (breast cells) = assay: Antiproliferative activity, sulphorhodamine B (SRB) assay, MCF-7; type: cell-based; conditions: Homo sapiens, MCF7, cytotoxicity, MCF-7 breast cancer cells, mean of three independent experiments
Procedure: as §1, §2

[1] = tested on: HCT-116 (colorectal cells); assay: Antiproliferative activity, sulphorhodamine B (SRB) assay, HCT-116; type: cell-based; conditions: Homo sapiens, HCT-116, cytotoxicity, HCT-116 colorectal cancer cells, mean of three independent experiments
Procedure: as §1, §2

EGFR = EGFR (Homo sapiens, UniProt P00533); assay: In vitro EGFR kinase inhibitory activity (ELISA, EGFR Erb B1 kinase kit)
Procedure: Briefly, solutions of kinase/peptide and ATP were prepared prior to use. […] Then, 5 mL of this prepared solution was added into 96 well plates, incubated for 1 h and determined by an ELISA Reader (Perkin Elmer, Waltham, MA, USA). Each experiment was repeated three times and IC50 represented as mean ± S.E, was calculated using Graph Pad Prism 5.

MCF-7 = assay: Apoptosis, acridine orange/ethidium bromide staining, MCF-7; type: cell-based, human; conditions: MCF-7, AO/EtBr dual staining, 48 h, fluorescent microscope
Procedure: (§3) AO and EtBr are DNA binding dyes. They have been used for detection of the morphological features of apoptotic and necrotic cells. The stainings were performed according the protocol as previously published.
(§4) The MCF-7, HepG2 and HCT 116 cancer cells were categorized by AO/EtBr dual staining. The different colors of the cells indicate different stages of apoptosis. […] and examined under a fluorescent microscope. Regularly stained green with normal, round, intact nuclei and cytoplasm indicates the viability of the normal cell (control).

HepG2 = assay: Apoptosis, acridine orange/ethidium bromide staining, HepG2; type: cell-based, human; conditions: HepG2, AO/EtBr dual staining, 48 h, fluorescent microscope
Procedure: as §3, §4

HCT 116 = assay: Apoptosis, acridine orange/ethidium bromide staining, HCT 116; type: cell-based, human; conditions: HCT 116, AO/EtBr dual staining, 48 h, fluorescent microscope
Procedure: as §3, §4

Chain of EGFR (P00533 25-1210): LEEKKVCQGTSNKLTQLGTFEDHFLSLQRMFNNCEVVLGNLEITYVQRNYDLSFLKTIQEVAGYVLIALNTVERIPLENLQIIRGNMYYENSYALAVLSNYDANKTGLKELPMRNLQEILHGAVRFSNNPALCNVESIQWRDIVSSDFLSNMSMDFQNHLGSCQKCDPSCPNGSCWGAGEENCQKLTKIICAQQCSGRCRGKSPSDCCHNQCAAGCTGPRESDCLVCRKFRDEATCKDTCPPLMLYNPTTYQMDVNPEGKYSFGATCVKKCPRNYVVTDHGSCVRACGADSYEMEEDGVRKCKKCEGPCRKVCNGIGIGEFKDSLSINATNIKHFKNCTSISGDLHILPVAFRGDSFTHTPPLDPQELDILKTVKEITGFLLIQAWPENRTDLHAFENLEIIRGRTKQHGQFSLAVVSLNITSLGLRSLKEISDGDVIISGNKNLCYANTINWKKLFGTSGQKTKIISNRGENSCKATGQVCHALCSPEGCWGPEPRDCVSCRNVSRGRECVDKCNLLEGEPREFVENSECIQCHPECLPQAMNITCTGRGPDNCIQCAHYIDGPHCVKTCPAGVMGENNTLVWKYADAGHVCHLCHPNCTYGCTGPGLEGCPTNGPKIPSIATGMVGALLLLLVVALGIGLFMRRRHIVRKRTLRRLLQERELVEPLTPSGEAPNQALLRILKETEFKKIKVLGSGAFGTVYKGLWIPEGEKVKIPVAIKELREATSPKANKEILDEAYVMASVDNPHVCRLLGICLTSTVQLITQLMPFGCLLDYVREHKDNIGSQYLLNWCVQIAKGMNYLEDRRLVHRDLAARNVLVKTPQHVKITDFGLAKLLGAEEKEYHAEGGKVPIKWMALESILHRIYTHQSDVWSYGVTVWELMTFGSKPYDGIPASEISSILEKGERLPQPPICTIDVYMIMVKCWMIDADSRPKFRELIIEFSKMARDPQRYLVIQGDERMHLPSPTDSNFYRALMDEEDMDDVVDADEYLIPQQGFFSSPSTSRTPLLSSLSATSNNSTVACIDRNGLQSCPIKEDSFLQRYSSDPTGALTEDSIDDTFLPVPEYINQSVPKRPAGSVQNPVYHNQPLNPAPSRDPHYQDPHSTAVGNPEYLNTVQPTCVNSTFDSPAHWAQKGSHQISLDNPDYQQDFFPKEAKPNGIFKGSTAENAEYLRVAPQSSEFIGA

Row | melting point | IC50 (EGFR) | Structure (SMILES) | IC50 (HepG2 (Hepatocellular)) | IC50 (MCF-7 (breast cells)) | IC50 [1] | also measured
1 |  | 710 ± 170 nM | COc1ccc2cc([C@H](C)c3nnc(SCc4cn(-c5ccc(F)cc5F)nn4)o3)ccc2c1 [Compound 9] | 4.52 µg/mL (≈ 9.43 µM) | 6.47 µg/mL (≈ 13.5 µM) | 7.46 µg/mL (≈ 15.6 µM) | Early apoptosis (cell death) (MCF-7): significant rate of cell death in early apoptosis; Necrosis (MCF-7): does not cause death of the necrosis pathway; Early apoptosis (cell death) (HepG2): significant rate of cell death in early apoptosis; Necrosis (HepG2): does not cause death of the necrosis pathway; Early apoptosis (cell death) (HCT 116): significant rate of cell death in early apoptosis; Necrosis (HCT 116): does not cause death of the necrosis pathway
2 |  | 670 ± 330 nM | COc1ccc2cc([C@H](C)c3nnc(SCc4cn(-c5ccccc5Cl)nn4)o3)ccc2c1 [Compound 10] | 3.53 µg/mL (≈ 7.39 µM) | 5.05 µg/mL (≈ 10.6 µM) | 33.9 µg/mL (≈ 70.9 µM) | Early apoptosis (cell death) (MCF-7): significant rate of cell death in early apoptosis; Early apoptosis (cell death) (HepG2): significant rate of cell death in early apoptosis; Early apoptosis (cell death) (HCT 116): significant rate of cell death in early apoptosis
3 | 160 to 161 °C | 5120 ± 210 nM | COc1ccc2cc([C@H](C)c3nnc(SCc4cn(-c5ccc(Br)cc5)nn4)o3)ccc2c1 [Compound 14] | 7.63 µg/mL (≈ 14.6 µM) | 7.5 µg/mL (≈ 14.4 µM) | 86.1 µg/mL (≈ 165 µM) | 
4 |  | 410 ± 120 nM | COc1ccc2cc([C@H](C)c3nnc(SCc4cn(-c5ccccc5O)nn4)o3)ccc2c1 [Compound 15, 2-(4-((5-((S)-1-(2-methoxynaphthalen-6-yl)ethyl)-1,3,4-oxadiazol-2-ylthio)methyl)-1H-1,2,3-triazol-1-yl)phenol] | 1.63 µg/mL (≈ 3.55 µM) | 2.13 µg/mL (≈ 4.64 µM) | 29.1 µg/mL (≈ 63.3 µM) | Early apoptosis (cell death) (HepG2): percentage of cell death decreased; Early apoptosis (cell death) (HCT 116): percentage of cell death decreased; Late apoptosis (HCT 116): induces more late apoptosis; Necrosis (HCT 116): high percentage of necrosis
5 | 129 to 130 °C |  | COc1ccc2cc([C@H](C)c3nnc(SCC(=O)Nc4cccc(Br)c4)o3)ccc2c1 [Compound 22] | > 100 µg/mL | > 100 µg/mL |  | 
6 |  | 1080 ± 310 nM | COc1ccc2cc([C@H](C)c3nnc(SCC(=O)Nc4ccccc4C)o3)ccc2c1 [Compound 24] | 4.88 µg/mL (≈ 11.3 µM) | 8.15 µg/mL (≈ 18.8 µM) | 29.3 µg/mL (≈ 67.7 µM) | 
7 | 130 to 131 °C |  | COc1ccc2cc([C@H](C)c3nnc(SCC(=O)Nc4ccccc4C(=O)O)o3)ccc2c1 [Compound 25] | 28 µg/mL (≈ 60.5 µM) | 29.8 µg/mL (≈ 64.3 µM) | 29.2 µg/mL (≈ 63 µM) | 

Second part, the compound before the results:

Row | Structure (SMILES) | melting point | IC50 (EGFR) | IC50 (HepG2 (Hepatocellular)) | IC50 (MCF-7 (breast cells)) | IC50 [1] | also measured
8 | COc1ccc2cc([C@H](C)c3nnc(SCc4cn(-c5ccc(F)cc5)nn4)o3)ccc2c1 [Compound 8] | 99 to 100 °C | 7310 ± 250 nM | 25.5 µg/mL (≈ 55.2 µM) | 7.38 µg/mL (≈ 16 µM) | 15.7 µg/mL (≈ 33.9 µM) | 
9 | COc1ccc2cc([C@H](C)c3nnc(SCc4cn(-c5cccc(Cl)c5)nn4)o3)ccc2c1 [Compound 11] |  |  | 37.9 µg/mL (≈ 79.3 µM) | 60.5 µg/mL (≈ 126 µM) | 83.9 µg/mL (≈ 176 µM) | 
10 | COc1ccc2cc([C@H](C)c3nnc(SCc4cn(-c5ccc(Cl)cc5Cl)nn4)o3)ccc2c1 [Compound 12] | 102 to 103 °C |  | 26.4 µg/mL (≈ 51.5 µM) | 45.7 µg/mL (≈ 89.2 µM) | 28.1 µg/mL (≈ 54.9 µM) | 
11 | COc1ccc2cc([C@H](C)c3nnc(SCc4cn(-c5cccc(Br)c5)nn4)o3)ccc2c1 [Compound 13] |  | 3420 ± 110 nM | 7.07 µg/mL (≈ 13.5 µM) | 15.8 µg/mL (≈ 30.3 µM) | 29.3 µg/mL (≈ 56 µM) | 
12 | COc1ccc2cc([C@H](C)c3nnc(SCc4cn(-c5cccc(C(=O)O)c5)nn4)o3)ccc2c1 [Compound 16] |  | 2270 ± 170 nM | 10.7 µg/mL (≈ 21.9 µM) | 10.4 µg/mL (≈ 21.4 µM) | 8.36 µg/mL (≈ 17.1 µM) | Late apoptosis (MCF-7): observed at a high rate; Necrosis (MCF-7): high percentage of necrosis; Late apoptosis (HepG2): observed at a high rate; Necrosis (HepG2): high percentage of necrosis
13 | COc1ccc2cc([C@H](C)c3nnc(SCC(=O)Nc4ccc(F)cc4)o3)ccc2c1 [Compound 19] | 220 to 221 °C |  |  |  |  | 
14 | COc1ccc2cc([C@H](C)c3nnc(SCC(=O)Nc4ccc(F)cc4F)o3)ccc2c1 [Compound 20] | 102 to 103 °C |  | 31.3 µg/mL (≈ 68.8 µM) | 32.6 µg/mL (≈ 71.7 µM) | 73.4 µg/mL (≈ 161 µM) | 
15 | COc1ccc2cc([C@H](C)c3nnc(SCC(=O)Nc4cccc(Cl)c4)o3)ccc2c1 [Compound 21] |  | 820 ± 280 nM | 7 µg/mL (≈ 15.4 µM) | 25.9 µg/mL (≈ 57.1 µM) | 1.24 µg/mL (≈ 2.73 µM) | 
16 | COc1ccc2cc([C@H](C)c3nnc(SCC(=O)Nc4ccc(Br)cc4)o3)ccc2c1 [Compound 23] | 148 to 149 °C |  | 15 µg/mL (≈ 30 µM) | 25.6 µg/mL (≈ 51.3 µM) | 35.1 µg/mL (≈ 70.5 µM) | 
17 | COc1ccc2cc([C@H](C)c3nnc(SCC(=O)N4CCOCC4)o3)ccc2c1 [Compound 26] |  |  | 23.6 µg/mL (≈ 57.2 µM) | 22.3 µg/mL (≈ 53.9 µM) | 11.1 µg/mL (≈ 26.8 µM) | 
18 | COc1cccc2c1C(=O)c1c(O)c3c(c(O)c1C2=O)C[C@@](O)(C(=O)CO)C[C@@H]3O[C@H]1C[C@H](N)[C@H](O)[C@H](C)O1 [Doxorubicin, reference compound] |  |  | 1.62 µg/mL (≈ 2.98 µM) | 1.41 µg/mL (≈ 2.59 µM) | 2.11 µg/mL (≈ 3.88 µM) | 
